{"source": "the NIST ThermoML archive (doi:10.1016/j.tca.2004.12.015)", "assay": "Molar enthalpy of transition or fusion", "conditions": "Adiabatic calorimetry", "note": "Numbers after ± are expanded uncertainties.", "data": [{"compound": "N#CCCNc1ccccc1", "note": "[3-anilinopropanenitrile]", "values": [{"measurement": "Molar enthalpy of transition or fusion", "setting": "Crystal 1", "result": "0.98 ± 0.005", "unit": "kJ/mol"}, {"measurement": "Molar enthalpy of transition or fusion", "setting": "Crystal 2", "result": "19.4 ± 0.005", "unit": "kJ/mol"}]}]}
